Experimental data from patent US10336748B2, “Methyoxy-substituted pyrrolopyridine modulators of RORC2 and methods of use thereof” (Pfizer Inc., priority 2015, dated 2019).
pIC50: −log10 of the molar value.

Tests used:
human Th17 cells = assay: IL-17 production from human Th17 cells; assay type: cell-based; details: 144 h; IL-17A in supernatant by ELISA (MSD) after 6 days, human CD4+ T cells, anti-CD3 + anti-CD28 + cytokine cocktail
Method: The activity of compound of the invention can be also be determined by an IL-17 production from human Th17 cells assay. In general, this assay measures blockade of IL-17 production, the signature cytokine of T helper 17 (Th17) cells, by compounds. Purified human CD4+ T cells are stimulated with anti-CD3+anti-CD28 and incubated with a cytokine cocktail that induce their differentiation into Th17 in the absence or presence of various concentrations of compound. After 6 days, IL-17A concentration is measured in the cell culture supernatant with an ELISA kit (MSD).
Preparation of human CD4+ T cells. CD4+ T cells were purified from buffy coats from healthy donors (obtained from Massachusetts General Hospital) by negative selection the following procedure: Mixing 25 mL of blood with 1 mL of Rosette Sep CD4+ T cell enrichment cocktail (StemCell Technologies) followed by application of a layer of 14 mL Ficoll Paque Plus (Amersham GE Healthcare) and subsequent centrifugation at 1200 g for 20 min at room temperature. The Ficoll layer was then harvested and washed with phosphate saline buffer containing 2% (v/v) fetal bovine serum and cells were resuspended with RPMI medium containing 10% (v/v) fetal bovine serum and 10% (v/v) DMSO, frozen and kept in LN2 until used.
On the first day of the assay, a vial containing 10^7 CD4+ T cells is thawed rapidly in 37° C. water bath, immediately transferred into 20 mL X-Vivo 15 medium (Lonza), is spun for 6 min at 300×g, the supernatant is discarded, and the resulting pellet is re-suspended at 10^6 cells/mL in […] fresh X-Vivo 15 medium, followed by storage overnight in a tissue culture vessel in a humidified chamber at 37° C. and 5% CO2. Serial dilutions of compounds of the invention are prepared at 10× final concentration in X-Vivo15 medium containing 3% (v/v) DMSO.
On the second day of the assay, a 384-well tissue culture plate was coated with 10 μg/mL anti-hCD3 (eBioscience) at 50 μL/well. After 2 hr at 37° C., the supernatant is discarded and the coated plates are kept in a sterile tissue culture hood.
Cytokine plus anti-CD28 cocktail is prepared by mixing 25 ng/mL hIL-6 (Peprotech), 5 ng/mL hTGFbeta1 (Peprotech), 12.5 ng/mL IL-1beta (Peprotech), 25 ng/mL hIL-21, 25 ng/mL hIL-23 (R&D Systems), and 1 ug/mL anti-hCD28 (eBioscience) in X-Vivo 15 medium. The cytokine plus anti-CD28 cocktail with CD4+ cells is prepared such that the cocktail is diluted 10-fold and cell density is 0.22×10^6/mL. The mixture is incubated 1 hr at 37° C.
90 μL (20,000 cells) dispensed per well in the anti-hCD3 coated plate prepared as noted above.
10 μL 10× compound is added per well (final DMSO=0.3%) from the compound plate that was previously prepared, followed by 6 days of incubation in a tissue culture vessel in a humidified chamber at 37° C. and 5% CO2.
On day six of the assay, production of IL-17A in 10 μL of the supernatant is determined by sandwich ELISA using 384w hIL17 MSD plates following the manufacturer's protocol. Measurement is carried out in a Sector Imager 6000 by the same manufacturer. Signal units from the instrument are converted to pg/mL using a calibration curve with known amounts of IL-17A. IC50 values of test compounds (Table 2) are determined by the non-linear regression analysis of dose response curves.

[1] = target: T1, RORC2 ligand binding domain (6-His-RORC2 LBD) (Homo sapiens, UniProt P51449); assay: Co-activator recruitment by TR-FRET; assay type: biochemical; details: 6.3 nM RORC2 LBD, 200 nM SRC1-2 coactivator peptide, 3 hr room temperature
T1 construct: made in house; host or cells: E. coli
T1 sequence (P51449 269-508 limits assumed): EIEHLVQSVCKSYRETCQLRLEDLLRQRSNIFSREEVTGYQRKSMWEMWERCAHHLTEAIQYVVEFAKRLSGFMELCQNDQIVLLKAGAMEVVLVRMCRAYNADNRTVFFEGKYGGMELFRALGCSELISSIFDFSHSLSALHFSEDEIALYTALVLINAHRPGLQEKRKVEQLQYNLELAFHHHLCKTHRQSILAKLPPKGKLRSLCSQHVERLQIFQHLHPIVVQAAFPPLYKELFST
Source text: The activity of compound of the invention can be determined by a co-activator recruitment by TR-FRET (time-resolved fluorescence resonance energy transfer) assay. In general, the assay is based on the interaction between N-terminally Six-Histidine-tagged-RORC2 ligand binding domain (6-His-RORC2 LBD), expressed in E. coli and purified by affinity chromatography, and biotin-coactivator peptide SRC1-2 (biotin-aminohexanoic acid-[…]-NH2; SEQ ID NO: 1) containing the LXXLL consensus domain which is responsible for receptor binding. This interaction is detected by addition of Europium labeled-anti-His antibody (Ex. 337 nm, Em. 620 nm, which binds to 6His) and Streptavidin-APC (Ex. 620 nm, Em. 665 nm, which binds to biotin). When receptor and coactivator are bound to each other, upon shining light at 337 nm on the sample, the Europium emits fluorescence that excites APC due to close proximity (FRET) and this signal is measured at 665 nm. Due to the long lasting fluorescence emission of Europium, the non-specific, short-lived fluorescence is time-resolved (TR) from the fluorescence of interest. Inhibitors of the interaction of receptor and coactivator peptide are detected by a decrease in TR-FRET signal.
Specifically, in one embodiment the aforementioned assay was performed as outlined below. The assay was carried out in black polystyrene. 384-well plates in a total assay volume of 50.5 μL. The assay buffer contained 50 mM TRIS-HCL pH 7.5, 1 mM NaCl, 2 mM MgCl2, 0.5 mg/mL bovine serum albumin, and 5 mM dithiothreitol. The final concentration of reagents was 6.3 nM RORC2 LBD, 200 nM SRC1-2, 50 nM streptavidin APC, 1 nM Europium-labeled anti-His antibody, and varying concentrations of compounds such that final concentration of DMSO is 1% (v/v). The assay steps were: (1) dispensing […] compound at 100× final concentration in DMSO (test wells) or DMSO only (control wells for no inhibition); and (2) dispensing 50 μL mixture of the other assay components including receptor (test wells) or excluding receptor (control wells for maximal inhibition).
Assay mixtures were incubated are room temperature for 3 hr and read in EnVision 2100 Multilabel Reader (PerkinElmer Life Sciences) at Excitation Filter 320, Emission Europium Filter 615, Emission APC Filter 665, Dichroic Mirror D400/D630.
TR-FRET signal was determined by calculating the ratio of 665 nm by 615 nm and […] values of compounds of the invention (Table 1) were determined by the non-linear regression analysis of dose response curves.

| pIC50 (human Th17 cells) | pIC50 [1] | Compound |
| --- | --- | --- |
| 7.95 | 8.32 | COc1c(NC(=O)c2cccc(C#N)c2)cnc2c1c([C@@H]1CCN(C(=O)C3CCCCC3)C(C)(C)C1)cn2C [Example 27, (R)-3-cyano-N-(3-(1-(cyclohexanecarbonyl)-2,2-dimethylpiperidin-4-yl)-4-methoxy-1-methyl-1H-pyrrolo[2,3-b]pyridin-5-yl)benzamide] |
| 7.64 | 8.03 | COc1c(NC(=O)c2cccc(C#N)c2)cnc2c1c([C@@H]1CCN(C(=O)[C@@H](C)C(C)(C)C)C(C)(C)C1)cn2C [Example 34, 3-cyano-N-(3-((R)-2,2-dimethyl-1-((S)-2,3,3-trimethylbutanoyl)piperidin-4-yl)-4-methoxy-1-methyl-1H-pyrrolo[2,3-b]pyridin-5-yl)benzamide] |
| 7.44 | 8.14 | COc1c(NC(=O)c2cccc(C#N)c2)cnc2c1c(C1CCN(C(=O)c3c(C)cccc3F)CC1)cn2C [Example 16, 3-cyano-N-(3-(1-(2-fluoro-6-methylbenzoyl)piperidin-4-yl)-4-methoxy-1-methyl-1H-pyrrolo[2,3-b]pyridin-5-yl)benzamide] |
| 7.65 | 7.88 | COc1c(NC(=O)c2cccc(C#N)c2)cnc2c1c(C1CCN(C(=O)[C@@H](C)C3CCCC3)CC1)cn2C [Example 19, (S)-3-cyano-N-(3-(1-(2-cyclopentylpropanoyl)piperidin-4-yl)-4-methoxy-1-methyl-1H-pyrrolo[2,3-b]pyridin-5-yl)benzamide] |
| 7.29 | 7.75 | COc1c(NC(=O)c2ccc(C)c(C#N)c2)cnc2c1c(C1CCN(C(=O)C3CCCC3)CC1)cn2C [Example 11, 3-cyano-N-(3-(1-(cyclopentanecarbonyl)piperidin-4-yl)-4-methoxy-1-methyl-1H-pyrrolo[2,3-b]pyridin-5-yl)-4-methylbenzamide] |
| 7.67 | 8.21 | COc1c(NC(=O)c2cccc(C#N)c2)cnc2c1c([C@@H]1CCN(C(=O)C(C)C)C(C)(C)C1)cn2C [Example 28, (R)-3-cyano-N-(3-(1-isobutyryl-2,2-dimethylpiperidin-4-yl)-4-methoxy-1-methyl-1H-pyrrolo[2,3-b]pyridin-5-yl)benzamide] |
| 7.42 | 7.51 | COc1c(NC(=O)c2cccc(C#N)c2)cnc2c1c([C@@H]1[C@@H]3CC[C@H]1CN(C(=O)C1CCCC1)C3)cn2C [Example 23, 3-cyano-N-(3-((1R,5S,8r)-3-(cyclopentanecarbonyl)-3-azabicyclo[3.2.1]octan-8-yl)-4-methoxy-1-methyl-1H-pyrrolo[2,3-b]pyridin-5-yl)benzamide] |
| 7.96 | 8.16 | COc1ccc(C(=O)Nc2cnc3c(c(C4CCN(C(=O)[C@H](C)C(C)(C)C)CC4)cn3C)c2OC)cc1C#N [Example 4, (R)-3-cyano-4-methoxy-N-(4-methoxy-1-methyl-3-(1-(2,3,3-trimethylbutanoyl)piperidin-4-yl)-1H-pyrrolo[2,3-b]pyridin-5-yl)benzamide] |
| 6.98 | 7.53 | COc1c(NC(=O)c2ccc(F)c(C#N)c2)cnc2c1c(C1CCN(C(=O)C3CCCC3)CC1)cn2C [Example 10, 3-cyano-N-(3-(1-(cyclopentanecarbonyl)piperidin-4-yl)-4-methoxy-1-methyl-1H-pyrrolo[2,3-b]pyridin-5-yl)-4-fluorobenzamide] |
| 7.92 | 8.00 | COc1ccc(C(=O)Nc2cnc3c(c([C@@H]4CCN(C(=O)C5CCCC5)C[C@@H]4C)cn3C)c2OC)cc1C#N [Example 25, 3-cyano-N-(3-((3R,4R)-1-(cyclopentanecarbonyl)-3-methylpiperidin-4-yl)-4-methoxy-1-methyl-1H-pyrrolo[2,3-b]pyridin-5-yl)-4-methoxybenzamide] |
| 7.60 | 7.99 | COc1c(NC(=O)c2cccc(C#N)c2)cnc2c1c(C1CCN(C(=O)C3CCCC3)C[C@@H]1C)cn2C (stereo partly drawn) [Example 24, 3-cyano-N-(3-((3R,4R)-1-(cyclopentanecarbonyl)-3-methylpiperdin-4-yl)-4-methoxy-1-methyl-1H-pyrrolo[2,3-b]pyridin-5-yl)benzamide] |
| 7.96 | 8.24 | COc1ccc(C(=O)Nc2cnc3c(c([C@@H]4CCN(C(=O)C5CCCCC5)C(C)(C)C4)cn3C)c2OC)cc1C#N [Example 32, (R)-3-cyano-N-(3-(1-(cyclohexanecarbonyl)-2,2-dimethylpiperidin-4-yl)-4-methoxy-1-methyl-1H-pyrrolo[2,3-b]pyridin-5-yl)-4-methoxybenzamide] |
| 7.64 |  | COc1ccc(C(=O)Nc2cnc3c(c([C@@H]4[C@@H]5CC[C@H]4CN(C(=O)C4CCCC4)C5)cn3C)c2OC)cc1C#N [Example 22, 3-cyano-N-(3-((1R,5S,8r)-3-(cyclopentanecarbonyl)-3-azabicyclo[3.2.1]octan-8-yl)-4-methoxy-1-methyl-1H-pyrrolo[2,3-b]pyridin-5-yl)-4-methoxybenzamide] |
| 7.67 |  | COc1c(NC(=O)c2cccc(C#N)c2)cnc2c1c([C@@H]1[C@@H]3CC[C@H]1CN(C(=O)[C@H](C)C(C)(C)C)C3)cn2C [Example 21, 3-cyano-N-(4-methoxy-1-methyl-3-((1R,5S,8R)-3-((R)-2,3,3-trimethylbutanoyl)-3-azabicyclo[3.2.1]octan-8-yl)-1H-pyrrolo[2,3-b]pyridin-5-yl)benzamide] |
